Where two headings read alike, the source gives them in different places.
Experiments:
[1] = biological target: T1, glutathione-S-transferase (GST) tagged LXRalpha LBD (ligand binding domain) (Homo sapiens, UniProt Q13133); assay: LanthaScreen TR-FRET Liver X Receptor Coactivator Assay, co-activator recruitment to LXRalpha LBD; format: biochemical
T1 construct: purchased Invitrogen pv4655
T1 sequence (Q13133 209-447 limits assumed): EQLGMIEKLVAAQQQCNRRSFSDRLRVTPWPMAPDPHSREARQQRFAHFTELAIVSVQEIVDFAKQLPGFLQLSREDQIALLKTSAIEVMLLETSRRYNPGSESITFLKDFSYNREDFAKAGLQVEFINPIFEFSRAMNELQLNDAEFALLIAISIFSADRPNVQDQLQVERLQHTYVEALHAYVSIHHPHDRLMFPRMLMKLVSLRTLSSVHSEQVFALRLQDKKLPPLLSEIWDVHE
Method: (§1) Potency (Inflection Point, IP) and efficacy (Emax) are evaluated via compound-induced co-activator recruitment to glutathione-S-transferase (GST) tagged LXRbeta and LXRalpha LBD (ligand binding domain) proteins in relation to reference dual agonist compound T0901317 (N-(2,2,2-Trifluoroethyl)-N-[4-[2,2,2-trifluoro-1-hydroxy-1-(trifluoromethyl)ethyl] phenyl] benzenesulfonamide) using the LanthaScreen™ TR-FRET Liver X Receptor Coactivator Assays according to manufacturer's instructions (Invitrogen catalog number pv4658.pps and pv4655). While running the LanthaScreen™ TR-FRET Liver X Receptor Coactivator Assay, LXR alpha-LBD or LXR beta-LBD was added to ligand test compounds followed by addition of a mixture of a fluorescein-labelled coactivator peptide and terbium-conjugated anti-GST antibody. After an incubation period at room temperature, TR-FRET (time-resolved fluorescence resonance energy transfer) was measured using a filter-based instrument capable of TR-FRET, e.g. PerkinElmer Envision.

[2] = biological target: T2, glutathione-S-transferase (GST) tagged LXRbeta LBD (ligand binding domain) (Homo sapiens, UniProt P55055); assay: LanthaScreen TR-FRET Liver X Receptor Coactivator Assay, co-activator recruitment to LXRbeta LBD; format: biochemical
T2 construct: purchased Invitrogen pv4658.pps
T2 sequence (P55055 222-460 limits assumed): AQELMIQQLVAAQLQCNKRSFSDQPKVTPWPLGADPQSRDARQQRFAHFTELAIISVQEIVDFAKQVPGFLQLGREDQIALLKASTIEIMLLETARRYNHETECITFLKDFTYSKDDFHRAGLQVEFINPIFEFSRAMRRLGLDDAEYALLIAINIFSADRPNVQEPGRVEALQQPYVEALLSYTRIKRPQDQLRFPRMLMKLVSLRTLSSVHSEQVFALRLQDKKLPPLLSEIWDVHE
Method: as §1

[3] = efficacy at max dose, in relation to reference dual agonist T0901317, read-out: LXR alpha Activity @ max dose (%)
[4] = potency (Inflection Point, IP), co-activator recruitment to LXRalpha LBD, in relation to T0901317, read-out: LXR alpha IP
[5] = efficacy at max dose, in relation to reference dual agonist T0901317, read-out: LXR beta Activity @ max dose (%)
[6] = potency (Inflection Point, IP), co-activator recruitment to LXRbeta LBD, in relation to T0901317, read-out: LXR beta IP
[7] = potency (Inflection Point, IP), co-activator recruitment to LXRalpha LBD, in relation to T0901317

Compound | Emax [1, 3] [%] | EC50 [1, 4] [nM] | Emax [2, 5] [%] | EC50 [2, 6] [nM] | LXR alpha IP (nM) [1, 7] | EC50 ([2]; LXR beta IP (nM), potency (Inflection Point, IP), co-activator recruitment to LXRbeta LBD, in relation to T0901317) [nM] | Emax ([2]; read-out: LXR beta Activity @ max dose (%)) [%] | EC50 ([1]; co-activator recruitment to GST-LXRalpha LBD, TR-FRET, read-out: LXR alpha IP (Inflection Point, potency)) [nM] | Emax ([1]; efficacy in relation to reference dual agonist T0901317, read-out: LXR alpha Activity @ max dose) [%] | EC50 ([2]; co-activator recruitment to GST-LXRbeta LBD, TR-FRET, read-out: LXR beta IP (Inflection Point, potency)) [nM] | Emax ([2]; efficacy in relation to reference dual agonist T0901317, read-out: LXR beta Activity @ max dose) [%]
CNC(=O)c1ccc(N2CCC(OC3CCN(C(=O)C(O)(c4cccc(C)c4)C(F)(F)F)CC3)CC2)cc1Cl (stereo not shown) [Example 7-29, 2-chloro-N-methyl-4-[4-({1-[3,3,3-trifluoro-2-hydroxy-2-(3-methylphenyl)propanoyl]piperidin-4-yl}oxy)piperidin-1-yl]benzamide] | 25 | 3240 | 102 | 176 |  |  |  |  |  |  | 
CCOc1cccc([C@@](O)(C(=O)N2CCC(CC3CCN(c4ccc(C(=O)N(C)C)c(Cl)c4)CC3)CC2)C(F)(F)F)c1 [Example 2-92, 2-chloro-4-[4-({1-[(2R)-2-(3-ethoxyphenyl)-3,3,3-trifluoro-2-hydroxy-propanoyl]piperidin-4-yl}methyl)piperidin-1-yl]-N,N-dimethyl-benzamide] | 3 |  | 56 | 12 | NO IP |  |  |  |  |  | 
Cc1cccc(C(O)(C(=O)N2CCC(CC3CCN(c4ccc(C(=O)N(C)C)c(C)n4)CC3)CC2)C(F)(F)F)c1 (stereo not shown) [Example 7-6, N,N,2-trimethyl-6-[4-({1-[3,3,3-trifluoro-2-hydroxy-2-(3-methylphenyl)propanoyl]piperidin-4-yl}methyl)piperidin-1-yl]pyridine-3-carboxamide] | 11 |  | 70 | 46 | NO IP |  |  |  |  |  | 
CCOc1cccc([C@@](O)(C(=O)N2CCC(CC3CCN(c4ccc(C(=O)NC)c(Cl)n4)CC3)CC2)C(F)(F)F)c1 [Example 7-137, 2-chloro-6-[4-({1-[(2R)-2-(3-ethoxyphenyl)-3,3,3-trifluoro-2-hydroxypropanoyl]piperidin-4-yl}methyl)piperidin-1-yl]-N-methylpyridine-3-carboxamide] | 9 |  | 82 | 23 | NO IP |  |  |  |  |  | 
COc1cccc([C@@](O)(C(=O)N2CCC(CC3(C)CCN(c4ccc(C(=O)N(C)C)c(Cl)c4)CC3)CC2)C(F)(F)F)c1 [Example 3-1, (R)-2-chloro-N,N-dimethyl-4-(4-methyl-4-((1-(3,3,3-trifluoro-2-hydroxy-2-(3-methoxyphenyl)propanoyl)piperidin-4-yl)methyl)piperidin-1-yl)benzamide] | 5 |  |  |  | NO IP | 35 | 63 |  |  |  | 
O=C(c1ccc(N2CCC(CC3CCN(C(=O)[C@](O)(c4ccccc4)C(F)(F)F)CC3)CC2)cc1Cl)N1CC(F)(F)C1 [Example 4-8, (2R)-3-{4-[(1-{3-chloro-4-[(3,3-difluoroazetidin-1-yl)carbonyl]phenyl}piperidin-4-yl)methyl]piperidin-1-yl}-1,1,1-trifluoro-3-oxo-2-phenylpropan-2-ol] | 37 | 984 | 93 | 172 |  |  |  |  |  |  | 
CN(C)C(=O)c1ccc(N2CCC(CC3CCN(S(=O)(=O)c4cc(F)ccc4F)CC3)CC2)cc1Cl [Example 13-5, 2-chloro-4-[4-({1-[(2,5-difluorophenyl)-sulfonyl]piperidin-4-yl}methyl)piperidin-1-yl]-N,N-dimethylbenzamide] |  |  |  |  |  |  |  | 590 | 33 | 52 | 63
CN(C)C(=O)c1ccc(N2CCC(CC3CCN(C(=O)[C@](O)(c4cc(Cl)cc(Cl)c4)C(F)F)CC3)CC2)cc1Cl [Example 2-121, 2-chloro-4-[4-({1-[(2R)-2-(3,5-dichloro-phenyl)-3,3-difluoro-2-hydroxy-propanoyl]piperidin-4-yl}methyl)piperidin-1-yl]-N,N-dimethyl-benzamide] | 0 |  | 51 | 7 | NO IP |  |  |  |  |  | 
COc1cccc([C@@](O)(C(=O)N2CC(CC3CCN(c4ccc(C(=O)N(C)C)c(Cl)n4)CC3)C2)C(F)(F)F)c1 [Example 7-45, 2-chloro-N,N-dimethyl-6-[4-({1-[(2R)-3,3,3-trifluoro-2-hydroxy-2-(3-methoxyphenyl)propanoyl]azetidin-3-yl}methyl)piperidin-1-yl]pyridine-3-carboxamide] | 14 |  | 92 | 22 | NO IP |  |  |  |  |  | 
COc1cc(F)cc(C(O)(C(=O)N2CCC(CC3CCN(c4ccc(C(=O)N(C)C)c(Cl)n4)CC3)CC2)C(F)(F)F)c1 (stereo not shown) [Example 7-89, 2-chloro-N,N-dimethyl-6-[4-({1-[3,3,3-trifluoro-2-(3-fluoro-5-methoxyphenyl)-2-hydroxypropanoyl]piperidin-4-yl}methyl)piperidin-1-yl]pyridine-3-carboxamide] | 19 | 112 | 86 | 6 |  |  |  |  |  |  | 
COc1cc(F)cc([C@](O)(C(=O)N2CCC(CC3CCN(c4ccc(C(=O)N(C)C)c(Cl)n4)CC3)CC2)C(F)(F)F)c1 [Example 7-102, 2-chloro-N,N-dimethyl-6-[4-({1-[(2S)-3,3,3-trifluoro-2-(3-fluoro-5-methoxyphenyl)-2-hydroxypropanoyl]piperidin-4-yl}methyl)piperidin-1-yl]pyridine-3-carboxamide] | 16 |  | 114 | 78 | NO IP |  |  |  |  |  | 
Cc1cc(N2CCC(CC3CCN(C(=O)[C@](O)(c4cccc(Cl)c4)C(F)(F)F)CC3)CC2)ccc1C(=O)N(C)C [Example 2-159, 4-[4-({1-[(2R)-2-(3-chloro-phenyl)-3,3,3-trifluoro-2-hydroxy-propanoyl]piperidin-4-yl}methyl)piperidin-1-yl]-N,N,2-trimethyl-benzamide] | 22 | 156 | 65 | 21 |  |  |  |  |  |  | 
CN(C)C(=O)c1ccc(N2CCC(CC3CCN(C(=O)[C@](O)(c4cccc(OC(F)(F)F)c4)C(F)(F)F)CC3)CC2)cc1Cl [Example 2-91, 2-chloro-N,N-dimethyl-4-{4-[(1-{(2R)-3,3,3-trifluoro-2-hydroxy-2-[3-(trifluoro-methoxy)phenyl]propanoyl}piperidin-4-yl)methyl]piperidin-1-yl}benzamide] | 20 | 199 | 58 | 23 |  |  |  |  |  |  | 
CN(C)C(=O)c1cnc(N2CCC(CC3CCN(C(=O)[C@](O)(c4ccccc4)C(F)(F)F)CC3)CC2)cc1Cl [Example 7-2, 4-chloro-N,N-dimethyl-6-[4-({1-[(2R)-3,3,3-trifluoro-2-hydroxy-2-phenylpropanoyl]piperidin-4-yl}methyl)piperidin-1-yl] pyridine-3-carboxamide] | 36 |  | 32 | 4670 | NO IP |  |  |  |  |  | 
Cc1cc(N2CCC(CC3CCN(C(=O)[C@](O)(c4ccccc4)C(F)(F)F)CC3)CC2)ccc1C(=O)N(C)C [Example 2-155, N,N,2-trimethyl-4-[4-({1-[(2R)-3,3,3-trifluoro-2-hydroxy-2-phenyl-propanoyl]piperidin-4-yl}methyl)piperidin-1-yl]benzamide] | 33 | 386 | 69 | 25 |  |  |  |  |  |  | 
CCOc1cccc([C@@](O)(C(=O)N2CCC(CC3(C)CCN(c4ccc(C(=O)N(C)C)c(OC)n4)CC3)CC2)C(F)(F)F)c1 [Example 7-24] | 7 |  | 106 | 92 | NO IP |  |  |  |  |  | 

Reference: patent US10752587B2, “Homobispiperidinyl derivatives as liver X receptor beta agonists, compositions and their use” (Merck Sharp & Dohme Corp., priority 2015, dated 2020)
